Laboratory results taken from US4288609A, “Quaternary ammonium derivatives of adamantane with antimicrobic activity” (priority 1976, dated 1981).
Read-outs that look alike come from different tables or passages of the source.

Columns and labels:
[1] = test system: Streptococ. Henclyt. 0203; assay: M.I.C. in vitro, gram+ Streptococ. Henclyt. (Table 1); format: cell-based; conditions: for MIC: read-out: M.I.C.
Method: (§1) The method for evaluating the activity in vitro against bacteria, fungi and protozoa consists in introducing calculated quantities of the substance, the activity of which it is desired to test, into culture media already inoculated with a predetermined number of test germs.
(§2) After 24 or 48 hours of incubation at 30° or 37° C., according to the micro-organism being tested, it is possible to evaluate the growth of the same in the culture broth; in this manner the minimum concentration (M.I.C.) which inhibits the growth of the micro-organisms in vitro is determined.
(§3) In table 1 there are recorded the M.I.C. values in γ/ml of the products subject of the present invention, against certain gram+ and gram- bacterial strains, some of which are pathogenic towards human beings.

Diplococcus Pneum. ISM = assay: M.I.C. in vitro, gram+ Diplococcus Pneum. (Table 1); format: cell-based; conditions: read-out: M.I.C.
Method: as §1, §2, §3

[2] = test system: Trych. Mentagr. 1st.Pastuer; assay: MIC mildews, Trichophyton mentagrophytes (Table 2); format: cell-based; conditions: Sabourand broth
Method: as §1, §2
(§4) Inoculation with Trichophyton mentagrophytes and Microsporum canis was effected in a ratio of 1% of the volume of medium used.
(§5) For the fungi Sabourand broth was used as a culture medium, whilst for the protozoa Kupferberg Trichomonas broth with 5% of horse serum was used.

Proteus Vulc. ATCC 881 = assay: M.I.C. in vitro, gram- Proteus Vulc. (Table 1); format: cell-based; conditions: read-out: M.I.C.
Method: as §1, §2, §3

[3] = test system: Nicrosporum Canis ATCC 11621; assay: MIC mildews, Microsporum canis (Table 2); format: cell-based; conditions: Sabourand broth
Method: as §1, §2, §4, §5

Esch. Coli. SKF 12140 = assay: M.I.C. in vitro, gram- Esch. Coli (Table 1); format: cell-based, Escherichia Coli; conditions: Escherichia coli, read-out: M.I.C.
Method: as §1, §2, §3

Trich. Foetus ISM 66/23 = assay: MIC protozoa, Trichomonas foetus (Table 2); format: cell-based; conditions: +10% serum (head), Kupferberg Trichomonas broth with 5% of horse serum
Method: as §1, §2
(§6) Inoculation with Trichomonas vaginalis and Trichomonas foetus, obtained from cultures transplanted every other day to make them lively, was effected in a ratio of 3.5% of the volume of medium used.
as §5

[4] = test system: Candida Pseudotrop. ATCC 2512; assay: MIC yeasts, Candida pseudotropicalis (Table 2); format: cell-based; conditions: Sabourand broth
Method: as §1, §2
(§7) Inoculation with Candida albicans or Candida pseudotropicalis was made by diluting cultures grown for 24 h at 30° C. (cellular density inoculated 10^3 /ml).
as §5

Pseudom.Aer. ATCC 1014 = assay: M.I.C. in vitro, gram- Pseudom. Aer. (Table 1); format: cell-based, Pseudomonas Aeruginosa; conditions: for MIC: Pseudomonas aeruginosa, read-out: M.I.C.
Method: as §1, §2, §3

[5] = Acute oral toxicity in mice (Table 4); conditions: mouse, in vivo, po, LD50, oral, mice, 14 days
Method: The substances were administered orally to groups of 10 female mice CF1 of average weight of about 20 grams, in aqueous solution and in such way that the total volume administered would be in each case 1 ml/100 g of weight.

Staph.Aureus Tour = assay: M.I.C. in vitro, gram+ Staph. Aureus (Table 1); format: cell-based, Staphylococcus Aureus; conditions: Staphylococcus aureus, read-out: M.I.C.
Method: as §1, §2, §3

[6] = test system: Trich. Vaginalis ISM 66/22; assay: MIC protozoa, Trichomonas vaginalis (Table 2); format: cell-based; conditions: Trichomonas vaginalis, +10% serum (head); Kupferberg Trichomonas broth with 5% of horse serum; read-out: MIC
Method: as §1, §2, §6, §5

Candida Albic. SKF 2270 = assay: MIC yeasts, Candida albicans (Table 2); format: cell-based; conditions: Sabourand broth
Method: as §1, §2, §7, §5

Klens. Pneum. ISM = assay: M.I.C. in vitro, gram- Klens. Pneum. (Table 1); format: cell-based; conditions: read-out: M.I.C.
Method: as §1, §2, §3

[7] = Trichophyton mentagrophytes, +10% serum, read-out: MIC
[8] = Trichophyton mentagrophytes, without serum, read-out: MIC
[9] = Microsporum canis, ATCC11621, +10% serum, read-out: MIC
[10] = Microsporum canis, ATCC11621, without serum, read-out: MIC
[11] = Tritrichomonas foetus, read-out: MIC
[12] = Candida, ATCC2512, +10% serum, read-out: MIC
[13] = Candida, ATCC2512, without serum, read-out: MIC
[14] = Candida, +10% serum, read-out: MIC
[15] = Candida, without serum, read-out: MIC

Compound	MIC ([1]; +10% serum) [µg/mL]	MIC ([1]; without serum) [µg/mL]	MIC (Diplococcus Pneum. ISM; +10% serum) [µg/mL]	MIC (Diplococcus Pneum. ISM; without serum) [µg/mL]	MIC [2, 7] [µg/mL]	MIC [2, 8] [µg/mL]	MIC (Proteus Vulc. ATCC 881; +10% serum) [µg/mL]	MIC (Proteus Vulc. ATCC 881; without serum) [µg/mL]	MIC [3, 9] [µg/mL]	MIC (Esch. Coli. SKF 12140; +10% serum) [µg/mL]	MIC (Esch. Coli. SKF 12140; without serum) [µg/mL]	MIC [4, 12] [µg/mL]	MIC (Pseudom.Aer. ATCC 1014; ATCC1014, +10% serum) [µg/mL]	LD50 at 336 h [5] [mg/kg]	MIC (Staph.Aureus Tour; +10% serum) [µg/mL]	MIC (Staph.Aureus Tour; without serum) [µg/mL]	MIC [6] [µg/mL]	MIC (Candida Albic. SKF 2270; [15]) [µg/mL]	MIC (Klens. Pneum. ISM; +10% serum) [µg/mL]	MIC (Klens. Pneum. ISM; without serum) [µg/mL]	other results
CCCCCCCCCCC[N+](C)(C)CCOC(=O)C12CC3CC(CC(C3)C1)C2 [Example 3]	9.2	< 0.1	5	0.5	10	0.1	100	5	10	100	2	50	100	745	5	< 0.1	5	0.5	100	5	MIC [3, 10]: < 0.1 µg/mL; MIC (Trich. Foetus ISM 66/23; [11]): 5 µg/mL; MIC [4, 13]: < 0.1 µg/mL; MIC (Pseudom.Aer. ATCC 1014; ATCC1014, without serum): 20 µg/mL; MIC (Candida Albic. SKF 2270; [14]): 20 µg/mL
CCCCCCCCCC[N+](CC)(CC)CCOC(=O)C12CC3CC(CC(C3)C1)C2 [Example 5, n-Decyl-diethyl-(1-adamantane-carboxy)-ethyl-ammonium bromide]	0.5	< 0.1	10	0.5	10	0.1	100	10	20	100	5	50	100	750	5	< 0.1	10	0.5	100	10	MIC [3, 10]: 0.1 µg/mL; MIC (Trich. Foetus ISM 66/23; [11]): 5 µg/mL; MIC [4, 13]: 0.1 µg/mL; MIC (Pseudom.Aer. ATCC 1014; ATCC1014, without serum): 50 µg/mL; MIC (Candida Albic. SKF 2270; [14]): 50 µg/mL
CCCCCCCCCCCC[N+](CC)(CC)CCOC(=O)C12CC3CC(CC(C3)C1)C2 [Example 6, n-Dodecyl-diethyl-(1-adamantane-carboxy)-ethyl-ammonium bromide]	2	0.5	5	2	20	0.5	100	20	50	100	10	50	100	935	10	0.1	10	2	100	10	MIC [3, 10]: 0.5 µg/mL; MIC (Trich. Foetus ISM 66/23; [11]): 5 µg/mL; MIC [4, 13]: 0.5 µg/mL; MIC (Pseudom.Aer. ATCC 1014; ATCC1014, without serum): 50 µg/mL; MIC (Candida Albic. SKF 2270; [14]): 50 µg/mL
CCCCCCCCCC[N+](C)(C)CCNC(=O)C12CC3CC(CC(C3)C1)C2 [Example 7]	2	0.2	10	0.5	20	0.5	100	10	20	100	10	50	100	955	5	0.2	5	5	50	10	MIC [3, 10]: 0.5 µg/mL; MIC (Trich. Foetus ISM 66/23; [11]): 2 µg/mL; MIC [4, 13]: 0.2 µg/mL; MIC (Pseudom.Aer. ATCC 1014; ATCC1014, without serum): 50 µg/mL; MIC (Candida Albic. SKF 2270; [14]): 50 µg/mL
CCCCCCCCCC[N+](CC)(CC)CCNC(=O)C12CC3CC(CC(C3)C1)C2 [Example 9, n-Decyl-diethyl-(1-adamantane-carbonylamido)-ethylammonium bromide]	–	–	5	1	–	–	100	5	–	50	5	50	50	980	5	0.1	5	1	50	10	M.I.C. ([1]; +10% serum): 0.5 µg/mL; M.I.C. ([1]; without serum): 0.1 µg/mL; MIC ([2]; +10% serum): 10 µg/mL; MIC ([2]; without serum): 0.2 µg/mL; MIC ([3]; +10% serum): 20 µg/mL; MIC ([3]; without serum): 0.2 µg/mL; MIC (Trich. Foetus ISM 66/23): 2 µg/mL; MIC ([4]; without serum): 0.2 µg/mL; M.I.C. (Pseudom.Aer. ATCC 1014; without serum): 10 µg/mL; MIC (Candida Albic. SKF 2270; +10% serum): 20 µg/mL
CCCCCCCCCCC[N+](CC)(CC)CCNC(=O)C12CC3CC(CC(C3)C1)C2 [Example 11, n-Undecyl-diethyl-(1-adamantane-carbonylamido)-ethylammonium bromide]	2	< 0.1	5	1	10	0.1	100	10	20	100	5	20	100	935	10	< 0.1	5	1	100	5	MIC [3, 10]: 0.2 µg/mL; MIC (Trich. Foetus ISM 66/23; [11]): 5 µg/mL; MIC [4, 13]: < 0.1 µg/mL; MIC (Pseudom.Aer. ATCC 1014; ATCC1014, without serum): 20 µg/mL; MIC (Candida Albic. SKF 2270; [14]): 20 µg/mL
CCCCCCCCCCCC[N+](CC)(CC)CCNC(=O)C12CC3CC(CC(C3)C1)C2 [Example 12, n-Dodecyl-diethyl-(1-adamantane-carbonylamido)-ethylammonium bromide]	5	0.2	20	2	20	0.2	100	5	20	100	10	50	100	890	10	0.2	5	1	100	5	MIC [3, 10]: 0.5 µg/mL; MIC (Trich. Foetus ISM 66/23; [11]): 5 µg/mL; MIC [4, 13]: 0.1 µg/mL; MIC (Pseudom.Aer. ATCC 1014; ATCC1014, without serum): 20 µg/mL; MIC (Candida Albic. SKF 2270; [14]): 20 µg/mL
